Key:
[1] = test system: right atria; assay: Pharmacological Test 1: spontaneous contraction of isolated right atria (chronotropic effect); parameters: species or system male Hartley guinea pig; settings: Cavia porcellus; 3×10^-5 M; percentage of atrial rate after injection, rate before injection = 100%; 30° C.
Description: (§1) Nos. of the compounds in the pharmacological tests 1 and 2 correspond to those in Examples referred to hereinafter.
(§2) A heart was removed from a male Hartley guinea pig (having a body weight of about 400 g or so) and a right atrium and papillary muscles of a right ventricle were separated from the removed heart. These preparations were suspended in 15 ml of Magnus' bath under load of 0.5 g (papillary muscles) or 1.0 g (right atria). Contraction of papillary muscles upon electric stimulation (1 Hz, 5 msec, 1.5×threshold voltage) and spontaneous contraction of the right atria were recorded through a transducer (manufactured by Orientec, T7-8-240) by a polygraph system (manufactured by NIHONKOHDEN, RMP-6008 and WT-685G).
(§3) Krebs-Henseleit solution was used as nutritive liquid bubbled with mixed gases of 95% O2 with 5% CO2 at 30° C. The value of inotropic effect is a percentage of increment of contractile force by samples when that by isoprotelenol (1×10^-8 M) is considered to be 100%. The value of chronotropic effect is a percentage of atrial rate after the injection of samples when the atrial rate before the injection is considered to be 100%.

[2] = test system: papillary muscles of a right ventricle; assay: Pharmacological Test 1: contraction of isolated right ventricular papillary muscles upon electric stimulation (inotropic effect); parameters: species or system male Hartley guinea pig; settings: 3×10^-5 M; percentage of increment of contractile force, isoprotelenol (1×10^-8 M) = 100%; 1 Hz stimulation, 30° C.
Description: as §1, §2, §3

Structure (SMILES)	activity at 30 µM [1]	Inotropic Effect [2]
COc1ccc(C(O)CN2CC=C(C3=NNC(=O)CS3)CC2)cc1 (stereo not drawn) [Compound 1, 2-[1-[2-Hydroxy-2-(4-methoxyphenyl)ethyl]-1,2,5,6-tetrahydropyrid-4-yl]-4H,6H-1,3,4-thiadiazin-5-one]	87.6%	55.7%
COc1cccc(C(O)CN2CC=C(C3=NNC(=O)CS3)CC2)c1 (stereo not drawn) [Compound 7, 2-[1-[2-Hydroxy-2-(3-methoxyphenyl)ethyl]-1,2,5,6-tetrahydropyrid-4-yl]-4H,6H-1,3,4-thiadiazin-5-one]	95.2%	54.0%
COc1ccc(OC)c(C(O)CN2CC=C(C3=NNC(=O)CS3)CC2)c1 (stereo not drawn) [Compound 8, 2-[1-[2-Hydroxy-2-(2,5-dimethoxyphenyl)ethyl]-1,2,5,6-tetrahydropyrid-4-yl]-4H,6H-1,3,4-thiadiazin-5-one]	89%	50.4%
O=C1CSC(C2=CCN(CC(O)c3cccc(Cl)c3)CC2)=NN1 (stereo not drawn) [Compound 12, 2-[1-[2-(3-Chlorophenyl)-2-hydroxyethyl]-1,2,5,6-tetrahydropyrid-4-yl]-4H,6H-1,3,4-thiadiazin-5-one]	93.8%	51.0%
O=C1CSC(C2=CCN(CC(O)c3ccc(Cl)cc3)CC2)=NN1 (stereo not drawn) [Compound 13, 2-[1-[2-(4-Chlorophenyl)-2-hydroxyethyl]-1,2,5,6-tetrahydropyrid-4-yl]-4H,6H-1,3,4-thiadiazin-5-one]	93.4%	72.2%
CC1SC(C2=CCN(CC(O)c3ccc(Cl)cc3)CC2)=NNC1=O (stereo not drawn) [Compound 14, 2-[1-[2-(4-Chlorophenyl)-2-hydroxyethyl]-1,2,5,6-tetrahydropyrid-4-yl]-6-methyl-4H,6H-1,3,4-thiadiazin-5-one]	73.5%	26.3%
O=C1CSC(C2=CCN(CC(O)c3ccc(Cl)cc3Cl)CC2)=NN1 (stereo not drawn) [Compound 17, 2-[1-[2-(2,4-Dichlorophenyl)-2-hydroxyethyl]-1,2,5,6-tetrahydropyrid-4-yl]-4H,6H-1,3,4-thiadiazin-5-one]	85.8%	45.0%
O=C1CSC(C2=CCN(CC(O)c3ccc(Cl)c(Cl)c3)CC2)=NN1 (stereo not drawn) [Compound 18, 2-[1-[2-(3,4-Dichlorophenyl)-2-hydroxyethyl]-1,2,5,6-tetrahydropyrid-4-yl]-4H,6H-1,3,4-thiadiazin-5-one]	97.8%	52.2%
Cc1cccc(C(O)CN2CC=C(C3=NNC(=O)CS3)CC2)c1 (stereo not drawn) [Compound 20, 2-[1-[2-Hydroxy-2-(3-methylphenyl)ethyl]-1,2,5,6-tetrahydropyrid-4-yl]-4H,6H-1,3,4-thiadiazin-5-one]	87.5%	65.7%
Cc1ccc(C(O)CN2CC=C(C3=NNC(=O)CS3)CC2)cc1 (stereo not drawn) [Compound 21, 2-[1-[2-Hydroxy-2-(4-methylphenyl)ethyl]-1,2,5,6-tetrahydropyrid-4-yl]-4H,6H-1,3,4-thiadiazin-5-one]	84.5%	92.6%
Cc1ccc(C(O)CN2CC=C(C3=NNC(=O)C(C)S3)CC2)cc1 (stereo not drawn) [Compound 22, 2-[1-[2-Hydroxy-2-(4-methylphenyl)ethyl]-1,2,5,6-tetrahydropyrid-4-yl]-6-methyl-4H,6H-1,3,4-thiadiazin-5-one]	76.7%	30.4%
Cc1ccc(C(O)CN2CC=C(C3=NNC(=O)CS3)CC2)c(C)c1 (stereo not drawn) [Compound 25, 2-[1-[2-Hydroxy-2-(2,4-dimethylphenyl)ethyl]-1,2,5,6-tetrahydropyrid-4-yl]-4H,6H-1,3,4-thiadiazin-5-one]	65.2%	58.5%
O=C1CSC(C2=CCN(CC(O)c3cccc(O)c3)CC2)=NN1 (stereo not drawn) [Compound 27, 2-[1-[2-Hydroxy-2-(3-hydroxyphenyl)ethyl]-1,2,5,6-tetrahydropyrid-4-yl]-4H,6H-1,3,4-thiadiazin-5-one]	98.7%	63.1%
O=C1CSC(C2=CCN(CC(O)c3ccccc3[N+](=O)[O-])CC2)=NN1 (stereo not drawn) [Compound 29, 2-[1-[2-Hydroxy-2-(2-nitrophenyl)ethyl]-1,2,5,6-tetrahydropyrid-4-yl]-4H,6H-1,3,4-thiadiazin-5-one]	101%	79.3%
O=C1CSC(C2=CCN(CC(O)c3cccc([N+](=O)[O-])c3)CC2)=NN1 (stereo not drawn) [Compound 30, 2-[1-[2-Hydroxy-2-(3-nitrophenyl)ethyl]-1,2,5,6-tetrahydropyrid-4-yl]-4H,6H-1,3,4-thiadiazin-5-one]	100%	113.9%
O=C1CSC(C2=CCN(CC(O)c3ccc([N+](=O)[O-])cc3)CC2)=NN1 (stereo not drawn) [Compound 31, 2-[1-[2-Hydroxy-2-(4-nitrophenyl)ethyl]-1,2,5,6-tetrahydropyrid-4-yl]-4H,6H-1,3,4-thiadiazin-5-one]	90.4%	74.7%
O=C1CSC(C2=CCN(CC(O)c3ccc4c(c3)OCO4)CC2)=NN1 (stereo not drawn) [Compound 32, 2-[1-[2-Hydroxy-2-[3,4-(methylenedioxy)phenyl]ethyl]-1,2,5,6-tetrahydropyrid-4-yl]-4H,6H-1,3,4-thiadiazin-5-one]	93.1%	63.9%
O=C1CSC(C2=CCN(CC(O)c3cccc(C(F)(F)F)c3)CC2)=NN1 (stereo not drawn) [Compound 34, 2-[1-[2-Hydroxy-2-[3-(trifluoromethyl)phenyl]ethyl]-1,2,5,6-tetrahydropyrid-4-yl]-4H,6H-1,3,4-thiadiazin-5-one]	98.1%	49.9%
O=C1CSC(C2=CCN(CC(O)c3ccc(F)cc3)CC2)=NN1 (stereo not drawn) [Compound 35, 2-[1-[2-(4-Fluorophenyl)-2-hydroxyethyl]-1,2,5,6-tetrahydropyrid-4-yl]-4H,6H-1,3,4-thiadiazin-5-one]	90.7%	63.5%
COc1ccc(C(O)CN2CC=C(C3=NNC(=O)SC3)CC2)cc1 (stereo not drawn) [Compound 39, 5-[1-[2-Hydroxy-2-(4-methoxyphenyl)ethyl]-1,2,5,6tetra-hydropyrid-4-yl]-3H,6H-1,3,4-thiadiazin-2-one]	75.7%	28.3%
O=C1NN=C(C2=CCN(CC(O)c3ccccc3)CC2)CS1 (stereo not drawn) [Compound 40, 5-[1-(2-Hydroxy-2-phenylethyl)-1,2,5,6-tetrahydropyrid-4-yl]-3H,6H-1,3,4-thiadiazin-2-one]	98.1%	35.3%
O=C1NN=C(C2=CCN(CC(O)c3ccc(Cl)cc3)CC2)CS1 (stereo not drawn) [Compound 42, 5-[1-[2-(4-Chlorophenyl)-2-hydroxyethyl]-1,2,5,6-tetrahydropyrid-4-yl]-3H,6H-1,3,4-thiadiazin-2-one]	85.9%	71.0%
Cc1ccc(C(O)CN2CC=C(C3=NNC(=O)SC3)CC2)cc1 (stereo not drawn) [Compound 43, 5-[1-[2-Hydroxy-2-(4-methylphenyl)ethyl]-1,2,5,6-tetrahydropyrid-4-yl]-3H,6H-1,3,4-thiadiazin-2-one]	85.2%	57.2%
O=C1NN=C(C2=CCN(CC(O)c3cccc(O)c3)CC2)CS1 (stereo not drawn) [Compound 44, 5-[1-[2-Hydroxy-2-(3-hydroxyphenyl)ethyl]-1,2,5,6-tetrahydropyrid-4-yl]-3H,6H-1,3,4-thiadiazin-2-one]	101%	39.9%

Source: patent US5574033A, “Heterocyclic compound and cardiotonic agent containing the same as effective component” (Zenyaku Kogyo Kabushiki Kaisha, priority 1991, dated 1996)
